Results as given in EP2197879B1, “C7-SUBSTITUTED CAMPTOTHECIN ANALOGS” (priority 2007, dated 2009).
Read-outs that look alike come from different tables or passages of the source.

Key:
angiogenesis = details: dose levels of 210 mg/kg; cited from earlier work
[1] = clinical studies in Japan alone; cited from earlier work
[2] = system: advanced malignant melanoma; details: 90-360 mg/m^2 repeated every 2 weeks; fifteen patients; cited from earlier work
[3] = cited from earlier work; for No. of Patients With Cystitis / No. of Patients With Diarrhea: 5-day Course; for Number of Patients with Cystitis / Number of Patients with Diarrhea: Single-Dose Method
[4] = system: advanced gastrointestinal cancer; details: cited from earlier work
[5] = cited from earlier work
[6] = cited from earlier work; remark: listed apart in the source
[7] = system: panel of over 20 human cancer cell lines; assay: In vitro antitumor potency on a panel of human cancer cell lines; details: compared with Topotecan or SN-38
[8] = closed E-ring lactone form; drug dissolving in 1 mL of water; cited from earlier work
[9] = 5-Day Course (27 Patients Total), 4 wks
[10] = 5-Day Course (27 Patients Total), 8 wks
[11] = 5-Day Course (27 Patients Total), 12 wks
[12] = Single-Dose Method (34 Patients Total), 3 wks
[13] = Single-Dose Method (34 Patients Total), 6 wks
[14] = Single-Dose Method (34 Patients Total), 9 wks
[15] = Single-Dose Method (34 Patients Total), 12 wks

Question: For `CCc1c2c(nc3ccc(OC(=O)N4CCC(N5CCCCC5)CC4)cc13)-c1cc3c(c(=O)n1C2)COC(=O)[C@]3(O)CC` [CPT-11, 7-ethyl-10-[4-(1-piperidino)-1-piperidino] carbonyloxy camptothecin], which neovascularization (angiogenesis) is on record?
Answer: significant reduction of neovascularization

Question: And the “patient deaths directly attributable to drug toxicity” value [1]?
Answer: approximately 100

Question: Which results are given for `CC[C@@]1(O)C(=O)OCc2c1cc1n(c2=O)Cc2cc3ccccc3nc2-1` [CPT sodium]?
Answer: patients with a 50% or greater decrease in tumor diameter [2]: None; patients with less pronounced transient tumor regression [2]: three; patients with myelosuppression [2]: 11; Cystitis ([3]; 5-Day Course): 48 (P<0.05) % of 27 Patients; No. of Patients With Cystitis ([3]; 11 mg/m^2 X 5): 1; No. of Patients With Cystitis ([3]; 15 mg/m^2 X 5): 4; No. of Patients With Diarrhea ([3]; 15 mg/m^2 X 5): 1; No. of Patients With Cystitis ([3]; 17 mg/m^2 X 5): 2; No. of Patients With Diarrhea ([3]; 17 mg/m^2 X 5): 4; No. of Patients With Cystitis ([3]; 20 mg/m^2 X 5): 6; No. of Patients With Diarrhea ([3]; 20 mg/m^2 X 5): 4; No. of Patients With Diarrhea ([3]; 22 mg/m^2 X 5): 1; Cystitis ([3]; Single Dose): 24 % of 34 Patients; Number of Patients with Cystitis ([3]; 100 mg/m^2): 2; Number of Patients with Cystitis ([3]; 110 mg/m^2): 1; Number of Patients with Diarrhea ([3]; 110 mg/m^2): 1; Number of Patients with Cystitis ([3]; 120 mg/m^2): 2; Number of Patients with Diarrhea ([3]; 120 mg/m^2): 4; Number of Patients with Cystitis ([3]; 180 mg/m^2): 3; Number of Patients with Diarrhea ([3]; 180 mg/m^2): 2; Objective Results: Improved [4, 9]: 1; Objective Results: Stable [4, 9]: 12; Objective Results: Worse [4, 9]: 14; Objective Results: Stable [4, 10]: 7; Objective Results: Worse [4, 10]: 20; Objective Results: Stable [4, 11]: 6; Objective Results: Worse [4, 11]: 21; Objective Results: Improved [4, 12]: 4; Objective Results: Stable [4, 12]: 17; Objective Results: Worse [4, 12]: 13; Objective Results: Improved [4, 13]: 2; Objective Results: Stable [4, 13]: 11; Objective Results: Worse [4, 13]: 21; Objective Results: Improved [4, 14]: 2; Objective Results: Stable [4, 14]: 8; Objective Results: Worse [4, 14]: 24; Objective Results: Stable [4, 15]: 6; Objective Results: Worse [4, 15]: 28; patients with partial objective improvement ([4]; after 2 months (8 or 9 weeks), of 61 patients): two; patients with improvement ([4]; at 3 months, of 61 patients): none; patients who showed a 25%-50% response ([4]; at 3 wks, only): *A total of 3 patients showed a 25%-50% response at 3 wks, only.; patients with dose limiting bladder toxicity ([5]; doses of 20 to 30 mg/m^2): three; additional patients with bladder toxicity ([5]; doses of 30 and 44 mg/m^2): two; clinical benefit ([5]; eight patients with measurable disease, 5-day courses): No clinical benefit

Question: Which “anti-tumor potency relative to the original, non-hydrolyzed lactone form” value ([6]; carboxylate form from sodium hydroxide formulation) does the source give for `CC[C@@](O)(C(=O)O)c1cc2n(c(=O)c1CO)Cc1cc3ccccc3nc1-2` [carboxylate form of CPT] here?
Answer: approximately one-tenth or less

Question: What about the anti-tumor activity reduced ([6]; carboxylate form versus lactone) of the same molecule?
Answer: at least 10 fold

Question: With `CC[C@@]1(O)C(=O)OCc2c1cc1n(c2=O)Cc2c-1nc1ccccc1c2CC[Si](C)(C)C` [Karenitecin, (4S)-4-ethyl-4-hydroxy-11-[2-(trimethylsilyl)ethyl]-1H-pyrano[3':4':6,7]indolizino[1,2-b]quinoline-3,14(4H,12H)-dione] as the molecule, how does the “Percent of Free Camptothecin Analogs in Human Plasma” value (human plasma proteins) read?
Answer: 1.2%

Question: What about the protein-bound (human plasma proteins) of the same molecule?
Answer: 98-99%

Question: What about the antitumor potency [7] of the same molecule?
Answer: significantly more potent

Question: What does the source list for `CC[C@@]1(O)C(=O)OCc2c1cc1n(c2=O)Cc2cc3ccccc3nc2-1` [CPT, (S)-4-Ethyl-4-hydroxy-1 H-pyrano[3',4':6,7]indolizino[1,2-b]quinoline-3,14(4H,12H)-dione]?
Answer: Percent of Free Camptothecin Analogs in Human Plasma (human plasma proteins; 100 nM Compound Concentrations, 48 hours or longer at room temperature): 0%; solubility in water [8]: approximately 0.1 µg
